The results in this text go back to US20070208087A1, “Compounds, compositions and methods for the treatment of inflammatory diseases” (priority 2001, published 2007).

What all share (format): cell-based
Assay [1] has as its system EOC 13.31 microglia cells. The assay is described as follows: Inhibition of NO release from microglia following 24 hours pretreatment (Example 10). The conditions noted are these: 50 uM pretreatment 24 hours, then LPS/IFNγ 48 hours; for inhibition at 50 µM: Microglia. As to the method:
This experiment was designed to determine if pretreatment for 24 hours with bis- and tris-dihydroxyaryl compounds changes NO inhibition previously observed with concurrent exposure of bis- and tris-dihydroxyaryl compounds. […] This study seeks to determine if pretreatment with bis- and tris-dihydroxyaryl compounds increases NO release inhibition. EOC 13.31 microglia cells were plated at 1×10^6 cells/ml in 96 well plates. After 48 hours, confluent cells were exposed to 50 μM compound (stock 10 mM in DMSO) prepared in fresh cell culture media. After 24 hours, 10 μg/ml LPS and 10 ng/ml IFNγ was added to wells directly without a media change. Cells were incubated for a further 48 hours and nitric oxide release was measured using the Griess Reaction.

Assay [2] has as its system EOC 13.31 microglia cells. The assay is described as follows: NO release inhibition in LPS/IFNγ stimulated microglia, concurrent treatment, Griess reaction at 24 hours (Example 6). The conditions noted are these: 24 hours; for NO release, Avg: 50 μM; for inhibition at 50 µM: Microglia. As to the method: The purpose of this experiment was to screen compounds 3, 4, 21, 26, 51, 52, 66, and 78 for their ability to inhibit Nitric oxide release from microglia. […] EOC 13.31 microglia cells were plated into 96 well plates for 24 hours. Confluent cells were treated with 50 μM of the bis- and tris-dihydroxyaryl compounds either with or without stimulation at 1 pg/ml LPS, and 1 ng/ml IFNγ. NO release was measured at 24 hours using the Griess reaction which is a spectrophotometric measure of NO release (reagents from Promega).
On the technique in general: Nitrite, measured by Griess reagent, commonly stands in for NO production.

Another assay relates to microglia. The assay is described as follows: Ranking of NO release inhibition (Example 12). The conditions noted are these: Microglia, ranking table. An excerpt:
The bis- and tris-dihydroxyaryl compounds were ranked in order of effectiveness for the inhibition of NO release as set out in Table 8.

For assay [3], the system named is TNF-α release from microglia. The assay is described as follows: TNF-α release from LPS/IFNγ stimulated microglia, TNF-α ELISA (Example 11). The following applies: 50 uM compound, TNF-α release, 10 ug LPS and 10 ng IFNγ, 24 hours. As to the method: Also, bis- and tris-dihydroxyaryl compound's ability to inhibit NO release strongly supports their interference with the inflammatory cascade and utlimately inhibition of inflammation. Microglia cells were plated at 1×10^5 cells/ml into 96 well plates. At day three, they were treated with 50 μM bis- and tris-dihydroxyaryl compound for 1 hour and then exposed to 10 μg/ml LPS+10 ng/ml IFNγ for 24 hours. 10 μl of media was removed and stored at −80° until TNF-α ELISA assays were performed. Samples were diluted 1:50 before running the TNF-α ELISA (kit commercially available from Sigma).
(ELISA stands for enzyme-linked immunosorbent assay.)

The subject of another assay is Microglial cells. Put plainly: Dose response inhibition of NO release from microglia, 0.5-500 μM (Example 9). The following applies: for μM NO release / μM NO release (No LPS average subtracted): 3 replicates. The method, then:
This experiment was designed to determine the dose response inhibition of NO release from microglia by bis- and tris-dihydroxyaryl compounds when stimulated with LPS/IFNγ. Earlier experiments have demonostrated that some bis- and tris-dihydroxyaryl compounds are good inhibitors of NO release from microglia. This experiment is designed to determine a dose response for various effective bis- and tris-dihydroxyaryl compounds. Microglial cells were plated into 96 well plates at 1×10^5 cells/ml. At 48 hours, media was exchanged for media containing 10 ng/ml IFNγ and 10 μg/ml LPS and the following compounds 3, 4, 21, 26 and the positive control L-NAME. The doses tested were: 0.5 μM, 1.0 μM, 5.0 μM, 10 μM, 25 μM, 50 μM, 100 μM, 250 μM, and 500 μM. Nitric oxide release was measured after 48 hours using the Griess reaction.

Assay [4] relates to EOC 13.31 microglial cells. The assay is described as follows: NO release inhibition screen in LPS/IFNγ stimulated microglia, Griess reaction at 48 hours (Example 7). The method, then:
In this experiment, additional bis- and tris-dihydroxyaryl compounds were screened for their ability to inhibit nitric oxide release from microglial cells. Microglial cells stimulated with LPS/IFNγ release nitric oxide. […] This is a continuation of screening experiments. EOC 13.31 microglial cells were plated into 96 well plates. At 24 hours and at confluency, cells were treated with 10 μg/ml LPS/10 ng/ml IFNγ+50 uM bis- and tris-dihydroxyaryl compounds.

Where [5] appears, read: single replicates, read-out: % inhibition.
[6] abbreviates: Compound Only (without LPS/IFNγ).
The mark [7] stands for this setting: Compound + LPS/IFNγ, read-out: % inhibition of NO release.
Where [8] appears, read: Table 2 summary, LPS/IFNγ, read-out: % Inhibition (summary of inhibition of NO release).
[9] abbreviates: dose 0.5 μM, LPS/IFNγ, 48 hours.
The mark [10] stands for this setting: dose 100 μM, LPS/IFNγ, 48 hours.
[11] abbreviates: dose 250 μM, LPS/IFNγ, 48 hours.
[12] abbreviates: dose 500 μM, LPS/IFNγ, 48 hours.

Values joined by “and” are separate entries in the source; they are usually repeats but may differ in a detail not shown here. Identical values can stand only once. Like-named read-outs stand apart in the source and are kept apart here.

Consider `O=C(CCC(=O)Nc1ccc(O)c(O)c1)Nc1ccc(O)c(O)c1` [Compound 66, succinic acid bis(3,4-dihydroxyanilide)], for which the “% inhibition” value in assay [1] (single replicates) was 59.20% and 65.21%. The inhibition at 50 µM in assay [1] (read-out: Avg % Inhibition) was found to be 64.3%; in assay [1] (setting [5]) it was 68.4%; in assay [2] (setting [7]), 16.9%; in assay [2] (setting [8]), 16.9%; in the assay on microglia, 17%. Further, the entries for the “NO release, Avg” value in assay [2] (Compound + LPS/IFNγ) and in assay [2] (setting [6]) were 15.4762 µM and 0.8333 µM, respectively.

For the compound `O=C(CCC(=O)NCc1ccc(O)c(O)c1)NCc1ccc(O)c(O)c1` [Compound 67, succinic acid bis(3,4-dihydroxybenzylamide)], the “% inhibition” value in assay [1] (single replicates) was 58.88% and 67.74%; in assay [3] (individual replicates, 50 µM), −27.48% and −14.06% and −17.41%; with Microglial cells (dose 0.5 μM, individual replicates, NO release, LPS/IFNγ, 48 hours), −7.00% and −0.25% and −1.00%; in the assay on Microglial cells (dose 1 μM, individual replicates, NO release, LPS/IFNγ, 48 hours), −7.00% and 5.00% and 6.50%; in the assay on Microglial cells (dose 5 μM, individual replicates, NO release, LPS/IFNγ, 48 hours) it was −6.25% and 3.50% and 0.50%; in the assay on Microglial cells (dose 10 μM, individual replicates, NO release, LPS/IFNγ, 48 hours), −14.49% and −9.99% and −13.74%. The “% inhibition” value in the assay with Microglial cells (dose 25 μM, individual replicates, NO release, LPS/IFNγ, 48 hours) was −1.75%; with Microglial cells (dose 50 μM, individual replicates, NO release, LPS/IFNγ, 48 hours), −12.99% and −4.75% and −9.99%; in the assay on Microglial cells (dose 100 μM, individual replicates, NO release, LPS/IFNγ, 48 hours) it was 12.49% and 30.48% and 5.00%; in the assay on Microglial cells (dose 250 μM, individual replicates, NO release, LPS/IFNγ, 48 hours) it was 42.44%; in the assay with Microglial cells (dose 500 μM, individual replicates, NO release, LPS/IFNγ, 48 hours) it was 78.38%; in assay [4] (50 uM + 10 μg/ml LPS/10 ng/ml IFNγ, 48 hours, single replicates, 50 µM), 44.82% and 72.72% and 65.01%. Further, the inhibition at 50 µM in assay [1] (read-out: Avg % Inhibition) is 65.6%; in assay [1] (setting [5]), 70.3%; in assay [3] (Microglia, 24 h, read-out: Avg % Inhibition), -19.6%; in the assay on microglia it was 61%; in the assay on Microglial cells (Microglia, 48 h, dose 50 μM, NO release, LPS/IFNγ) it was -9.24%; in assay [4] (Microglia, 48 h, 50 uM + 10 μg/ml LPS/10 ng/ml IFNγ, 48 hours, read-out: Avg. % Inhibition) it was 60.9%. Further, the inhibition at 0.5 µM with Microglial cells (Microglia, 48 h, dose 0.5 μM, NO release, LPS/IFNγ, 48 hours, read-out: Avg % Inhibition) was -2.75%. In the assay on Microglial cells (Microglia, 48 h, dose 1 μM, NO release, LPS/IFNγ, 48 hours, read-out: Avg % Inhibition), the inhibition at 1 µM is 1.5%. For the same compound, the inhibition at 5 µM in the assay with Microglial cells (Microglia, 48 h, dose 5 μM, NO release, LPS/IFNγ) is -0.75%. Also, in the assay with Microglial cells (Microglia, 48 h, dose 10 μM, NO release, LPS/IFNγ), the inhibition at 10 µM was -12.7%. Also, in the assay with Microglial cells (Microglia, 48 h, dose 25 μM, NO release, LPS/IFNγ), the inhibition at 25 µM was -5.5%. For the same compound, the inhibition at 100 µM with Microglial cells (Microglia, 48 h, dose 100 μM, NO release, LPS/IFNγ, 48 hours, read-out: Avg % Inhibition) amounted to 16%. Moreover, the inhibition at 250 µM was 44.4% in the assay with Microglial cells (Microglia, 48 h, dose 250 μM, NO release, LPS/IFNγ, 48 hours, read-out: Avg % Inhibition) and 45.3% with Microglial cells (Microglia, 48 h, dose 250 μM, individual replicates, NO release, LPS/IFNγ, 48 hours, read-out: % inhibition). The inhibition at 500 µM with Microglial cells (Microglia, 48 h, dose 500 μM, NO release, LPS/IFNγ, 48 hours, read-out: Avg % Inhibition) came to 76.9%; in the assay with Microglial cells (Microglia, 48 h, dose 500 μM, individual replicates, NO release, LPS/IFNγ, 48 hours, read-out: % inhibition) it was 75.5%; with Microglial cells (Microglia, 48 h, highest concentration tested (500 μM), 48 hours, read-out: inhibited NO release by) it was 76%. Moreover, the “μM NO release” value in the assay with Microglial cells (setting [9]) is 21.528 µM and 20.278 µM and 20.417 µM; with Microglial cells (dose 1 μM, LPS/IFNγ, 48 hours), 21.528 µM and 19.306 µM and 19.028 µM; with Microglial cells (dose 5 μM, LPS/IFNγ, 48 hours) it was 21.389 µM and 19.583 µM and 20.139 µM; in the assay on Microglial cells (dose 10 μM, LPS/IFNγ, 48 hours), 22.917 µM and 22.083 µM and 22.778 µM; in the assay on Microglial cells (dose 25 μM, LPS/IFNγ, 48 hours), 21.944 µM and 20.556 µM and 21.250 µM; in the assay with Microglial cells (dose 50 μM, LPS/IFNγ, 48 hours), 22.639 µM and 21.111 µM and 22.083 µM. Further, the “μM NO release” value was 17.917 µM and 14.583 µM and 19.306 µM with Microglial cells (setting [10]); 11.835 μM (2×) and 12.367 μM in the assay on Microglial cells (setting [11]); 6.250 µM and 5.707 µM and 5.978 µM in the assay on Microglial cells (setting [12]). For the same compound, the “μM NO release (No LPS average subtracted)” value with Microglial cells (setting [9]) was 19.83 µM and 18.58 µM and 18.72 µM; with Microglial cells (dose 1 μM, LPS/IFNγ, 48 hours), 19.83 µM and 17.61 µM and 17.33 µM; in the assay with Microglial cells (dose 5 μM, LPS/IFNγ, 48 hours), 19.69 µM and 17.88 µM and 18.44 µM; in the assay with Microglial cells (dose 10 μM, LPS/IFNγ, 48 hours), 21.22 µM and 20.38 µM and 21.08 µM; with Microglial cells (dose 25 μM, LPS/IFNγ, 48 hours), 20.24 µM and 18.86 µM and 19.55 µM; in the assay on Microglial cells (dose 50 μM, LPS/IFNγ, 48 hours), 20.94 µM and 19.41 µM and 20.38 µM. The “μM NO release (No LPS average subtracted)” value was 16.22 µM and 12.88 µM and 17.61 µM in the assay on Microglial cells (setting [10]); 10.14 μM (2×) and 10.67 μM with Microglial cells (setting [11]); 4.55 µM and 4.01 µM and 4.28 µM with Microglial cells (setting [12]). Besides, in assay [4] (50 uM + 10 μg/ml LPS/10 ng/ml IFNγ, 48 hours), the “μM NO release Avg” value stood at 10.579 µM. In addition, the “inhibition of NO release, in words” value in assay [4] (50 uM, LPS/IFNγ stimulated microglia) was “effective inhibitors of NO release”.

For `O=C(NCCc1ccc(O)c(O)c1)Nc1ccc(O)c(O)c1` [Compound 78, 1-(3,4-dihydroxyphenyl)-3-(3,4-dihydroxyphenethyl)urea], the “% inhibition” value in assay [1] (single replicates) was 57.93% and 69.00%. The inhibition at 50 µM was 65.5% in assay [1] (read-out: Avg % Inhibition); 69.6% in assay [1] (setting [5]); -0.9% in assay [2] (setting [7]); -0.9% in assay [2] (setting [8]); -1% in the assay with microglia. For the same compound, the “NO release, Avg” value in assay [2] (Compound + LPS/IFNγ) was 18.7925 µM; in assay [2] (setting [6]), 1.1667 µM.

What is called % inhibition is the drop in the measured response relative to a control, in per cent.
